Results: patent US10897903B2, “Method for controlling PPO resistant weeds” (BASF SE, priority 2016, dated 2021)

Key:
[1] = test system: w.2 AMATU Amaranthus tuberculatus, tall waterhemp, PPO resistant biotype 1 that does not contain the ΔG210 mutation; format: in vivo; conditions: summary of Example 3 table
[2] = test system: w.3 AMATU Amaranthus tuberculatus, tall waterhemp, PPO resistant biotype 2 that does not contain the ΔG210 mutation; format: in vivo; conditions: summary of Example 3 table

C#CCN1C(=O)C(F)(F)Oc2cc(F)c(-n3c(=O)n(C)c(=S)n(C)c3=O)cc21 [I.a.35]
activity in words on PPO resistant weed w.2 [1]: very good activity
activity in words on PPO resistant weed w.3 [2]: very good activity
